Results on one sequence are retold here after US11951171B2, “Polypeptide EXP and its drug delivery system as well as extracellular vesicle extraction” (TIANJIN MEDICAL UNIVERSITY, priority 2019, dated 2024).

Assay [1] concerns exosome from differentiated muscle cells C2C12(dC2C12). Put plainly: Flow cytometry binding of FAM-labeled peptides to exosome. The arrangement: species or system murine. How it is done: The FAM-labeled peptides EXP, CP05, 39880, 39881 were respectively co-incubated with exosome from differentiated muscle cells C2C12(dC2C12), and the binding efficiency of different polypeptides with exosome was detected by flow cytometry.
Each sign in the figure represents the detection results of the following sequences: EXO represents exosomes derived from murine myotubes; CP05 represents the polypeptide which is recorded in the prior art Chinese patent No. CN201510520565.7; EXP represents the polypeptide of the present invention (SEQ ID NO.1). 39880 and 399881 respectively represent two other variants of CP05. (A) Flow cytometry to detected the binding efficiency of different peptides with exosomes. […] (B) Flow cytometry to detected the capacity to enter cells of different peptides mediated by exosome. The equivalent amount FAM-labeled polypeptides were incubated with exosome derived from dC2C12 and added into C2C12 cells, and the capacity of enter cells was detected 24 hours later. It's shown by the results that 65.6% of EXO-EXP entered cells whose capacity is highest. (C) Quantitative analysis of different peptides entering cells mediated by exosome. […] (D) the binding efficiency of different amount gradients of CP05 and EXP to the equivalent amount of exosomes was detected by Flow cytometry to. Different amounts of EXP and CP05(0.03 μg, […], 0.3 μg) were co-incubated with exosomes (10 μg), and their binding efficiency was compared by flow cytometry.
1.1 Flow cytometry is used to detect the binding capacity of EXP and other peptides to exosome. • (1) FAM-labeled CP05 and other peptides respectively with amount of […] were mixed with exosome from different source like dC2C12, CDC and serum respectively with amount of […], and DPBS is used to make up a deficiency to 200 μl in volume with. • (2) The mixture prepared as described in (1) was incubated at 4° C. for 2-4 hrs under rotation in vertical shaker. • (3) the binding efficiency was detected with flow cytometry.
On the technique in general: Flow cytometry measures light scatter and fluorescence of single cells or particles in a stream.

The test system of assay [2] is MVmyo (microvesicles derived from differentiated muscle cells). Put plainly: Binding efficiency of EXP and CP05 to microvesicles (flow cytometer). As to conditions: flow cytometer (FIG. 8C). The text has this:
(A)Western blot is used to identify and compare the expression of biomarker proteins of MV and exosomes. It's shown by the results that Tetraspanin family proteins like CD81, CD9 and CD63 were expressed in MV, but mitochondrial marker protein Cytochrome C was not expressed. (B) particle size distribution of MV from different sources were detected by Nanosight. MVmyot means microvesicles derived from differentiated muscle cells; MVurine means microvesicles derived from urine. (C) Examination of the binding efficiency of EXP and CP05 to MVmyo was detected by flow cytometer. […] (E)Western blot was used to detect the recovery of dystrophin protein expression after MVEXPPMO treatment. […]

Assay [3] concerns exosomes recovered by EXP. Put plainly: Binding efficiency of CP05 and EXP with serum exosomes recovered by EXP. As to conditions: serum exosomes recovered by EXP (FIG. 6E).
In assay [4] the test system is exosomes derived from murine myotubes(EXOmyotube), cardiac sphere cells (CDC) (EXOCDC) and human serum (EXOserum). Kind of assay: Binding efficiency with exosomes from different sources (flow cytometry). How it is done:
FAM-labeled CP05 or EXP was co-incubated with exosomes derived from murine myotubes(EXOmyotube), cardiac sphere cells (CDC) (EXOCDC) and human serum (EXOserum), and the binding efficiency was detected with flow cytometry. It's shown by the results that the binding efficiency of CP05 to exosomes from different sources is about 70%, and the binding efficiency of the same amount of EXP with exosomes from corresponding sources was about 90%.
Experimental example 5: Comparison on binding efficiency of EXP and exosomes from different sources. • (1) 0.06 μg FAM-labeled CP05 and 0.06 μg of different peptides were respectively mixed with 10 μg exosome from dC2C12, CDC, serum, and DPBS was used to make up a deficiency to 200 μl. • (2) The mixture was incubated for 2-4 hrs at 4° C. under rotation in vertical shaker. • (3) The binding efficiency was detected with flow cytometry.

On to CRHKMWTVKSRL (EXP), for which, in assay [1] (0.03 μg, 0.06 g, 0.3 μg peptide co-incubated with exosomes (10 μg), FIG. 1D), the “binding efficiency with exosome under different amount gradients, compared with CP05” value was “all higher than that of CP05”. Also, the “binding efficiency to exosomes” value in assay [1] (FAM-labeled peptide co-incubated with exosome from dC2C12, flow cytometry (FIG. 1A)) is listed as “up to 95.5%”. Besides, the “binding efficiency of EXP with exosomes compared to CP05” value in assay [1] (under the same conditions) is given as “about 2 times”. The “binding efficiency to MVmyot compared with CP05” value in assay [2] is recorded as “significantly higher than that of CP05”. In addition, the “binding efficiency with recovered exosomes” value in assay [3] is reported as 95.9%. In addition, the “binding efficiency to exosomes from serum compared with CP05” value in assay [4] (exosomes from serum) is given as “significantly higher than that of CP05”. Moreover, in assay [4] (same amount of FAM-labeled peptide, EXOmyotube, EXOCDC, EXOserum), the “binding efficiency to exosomes from different sources” value is “about 90%”.
